# Measurements from patent US12616203B2, “Use of 3-isoxazolidinones compounds as selective herbicides” (FMC Corporation, priority 2014, dated 2026).
# Key:
# annual bluegrass (AB) = test: Ex2 PRE greenhouse, % control; type: in vivo, Poa annua; settings: 28 DAT, g ai/ha by row: r12-40 2,4-DC 31.25/62.5/125/250/375 (3 rows each) + metazachlor 250/500/750 (cycling), r42-46 2,4-DC 31.25/62.5/125/250/375, r47-49 metazachlor 250/500/750
# Experimental: (§1) Test compositions containing 2,4 DC Example 1B and metazachlor (Butisan® S, 43.1% active ingredient, BASF) and mixtures of 2-(2,4-dichlorophenyl)methyl-4,4-dimethyl-3-isoxazolidinone and metazachlor, were diluted with water to provide the appropriate test rate concentrations.
# (§2) The test crops were wheat and canola (Brassica napus), the test weeds were Italian ryegrass (IR) (Lolium perenne. multiflorum), annual bluegrass (AB) (Poa annua), common lambsquarters (CL) (Chenopodium album), littleseed canarygrass (LC) (Phalaris minor), common chickweed (CC) (Stellaria media), and corn poppy (CP) (Papaver rhoeas).
# (§3) For pre-emergence testing, four disposable fiber flats (6″ by 10″) for each rate of application of each herbicide solution were filled with top soil, to which seeds of each species were planted in furrows made by a template pressed on the top of the soil. The furrows were covered with soil after planting the seed and were watered well before application of the test compounds. […]
# (§4) The control of weeds was evaluated in each experimental test at 21 days after treatment (DAT) for corn poppy and wheat and 28 DAT for all other species. […]
# (§5) Percent control was determined by a method similar to the 0 to 100 rating system disclosed in “Research Methods in Weed Science,” 2nd ed., B. Truelove, Ed.; Southern Weed Science Society; Auburn University, Auburn, Ala., 1977.
# weeds = test: Ex18 PRE greenhouse; type: in vivo; settings: weed and rate in the words
# Text: Additional treatments included application of metazachlor (Butisan®, 43.1%) at 750 g ai/ha, napropamide (Devrinol DF®, 50%) at 1260 g ai/ha, and dimethachlor (Teridox®, 48%) at 1000 g ai/ha. […] Treatments were applied just after the seeding of annual bluegrass, cheat, wild oat, quackgrass, field violet, blackgrass, littleseed canarygrass, silky windgrass, yellow foxtail, and goosegrass. […] Flats were watered and fertilized routinely after treatment application. Each treatment was replicated three times.
# [1] = tested on: common lambsquarters (CL); test: Ex2 PRE greenhouse, % control; type: in vivo, Chenopodium album; settings: 28 DAT, g ai/ha by row: r12-40 2,4-DC 31.25/62.5/125/250/375 (3 rows each) + metazachlor 250/500/750 (cycling), r42-46 2,4-DC 31.25/62.5/125/250/375, r47-49 metazachlor 250/500/750
# Experimental: as §1, §2, §3, §4, §5
# corn poppy (CP) = test: Ex2 PRE greenhouse, % control; type: in vivo, Papaver rhoeas; settings: 21 DAT, g ai/ha by row: r12-40 2,4-DC 31.25/62.5/125/250/375 (3 rows each) + metazachlor 250/500/750 (cycling), r42-46 2,4-DC 31.25/62.5/125/250/375, r47-49 metazachlor 250/500/750
# Experimental: as §1, §2, §3, §4, §5
# Italian ryegrass (IR) = test: Ex2 PRE greenhouse, % control; type: in vivo, Lolium perenne. multiflorum; settings: 28 DAT, g ai/ha by row: r12-40 2,4-DC 31.25/62.5/125/250/375 (3 rows each) + metazachlor 250/500/750 (cycling)
# Experimental: as §1, §2
# For pre-emergence testing, four disposable fiber flats (6″ by 10″) for each rate of application of each herbicide solution were filled with top soil, to which seeds of each species were planted in furrows made by a template pressed on the top of the soil. The furrows were covered with soil after planting the seed and were watered well before application of the test compounds.
# Fiber flats designated for treatment were placed in a spray chamber having a static platform and a movable sprayer and height of the spray nozzle was 10.5 inches above the soil level. Once the sprayer was calibrated using water for spray volume of 30 gallons per acre, flats were sprayed with sprayer at a speed to receive a coverage equivalent of 30 gallons per acre. The application rates are those shown in Table 1 below for the individual herbicidal solutions and the herbicide compositions of the present invention. The pre-emergence flats were immediately placed in the greenhouse and watered lightly after treatment. Thereafter they were regularly watered and fertilized for the duration of the test.
# The control of weeds was evaluated in each experimental test at 21 days after treatment (DAT) for corn poppy and wheat and 28 DAT for all other species. The results, shown as an average of the replications were compared with results observed in untreated control flats in the same tests.
# as §5
# common chickweed (CC) = test: Ex2 PRE greenhouse, % control; type: in vivo, Stellaria media; settings: 28 DAT, g ai/ha by row: r12-40 2,4-DC 31.25/62.5/125/250/375 (3 rows each) + metazachlor 250/500/750 (cycling), r42-46 2,4-DC 31.25/62.5/125/250/375, r47-49 metazachlor 250/500/750
# Experimental: as §1, §2, §3, §4, §5
# weeds; Wheat and canola = test: Ex27 PRE greenhouse; type: in vivo; settings: weed and rate in the words
# Text: The weeds tested in this study were Italian ryegrass (Lolium perenne. multiflorum, LOLMU), wild mustard (Sinapis arvensis, SINAR), annual bluegrass (Poa annua POAAN), wild oat (Avena fatua, AVEFA), blackgrass (Alopecurus myosuroides, ALOMY), common lambsquarters (Chenopodium album […] (Phalaris minor, PHAMI), common chickweed (Stellaria media, STEME), corn poppy (Papaver rhoeas PAPRH). The crops tested were Wheat and canola. […] Treatments were applied before the emergence of Italian ryegrass, wild oat, blackgrass, littleseed canarygrass, common chickweed, common lambsquarters, corn poppy, wild mustard, annual bluegrass, canola, and wheat. […] Flats were watered and fertilized routinely after treatment application. […] Wheat and corn poppy were rated at 14 and 21 DAT only.
# [2] = tested on: littleseed canarygrass (LC); test: Ex2 PRE greenhouse, % control; type: in vivo, Phalaris minor; settings: 28 DAT, g ai/ha by row: r12-40 2,4-DC 31.25/62.5/125/250/375 (3 rows each) + metazachlor 250/500/750 (cycling)
# Text: Fiber flats designated for treatment were placed in a spray chamber having a static platform and a movable sprayer and height of the spray nozzle was 10.5 inches above the soil level. Once the sprayer was calibrated using water for spray volume of 30 gallons per acre, flats were sprayed with sprayer at a speed to receive a coverage equivalent of 30 gallons per acre. […] The pre-emergence flats were immediately placed in the greenhouse and watered lightly after treatment. Thereafter they were regularly watered and fertilized for the duration of the test.
# [3] = r42-46 2,4-DC 31.25/62.5/125/250/375, r47-49 metazachlor 250/500/750, 250 g ai/ha
# [4] = r42-46 2,4-DC 31.25/62.5/125/250/375, r47-49 metazachlor 250/500/750, 500 g ai/ha
structure (smiles),measurement,setting,value
"Cc1cccc(C)c1N(Cn1cccn1)C(=O)CCl [Metazachlor, metazachlor]",% Control AB,annual bluegrass (AB),100%
same,weed control in words,weeds,controlled all weeds
same,% Control CL,[1],100%
same,% Control CP,corn poppy (CP),100%
same,% Control IR,Italian ryegrass (IR); [3],96%
same,% Control IR,Italian ryegrass (IR); [4],98%
same,% Control IR,"Italian ryegrass (IR); r42-46 2,4-DC 31.25/62.5/125/250/375, r47-49 metazachlor 250/500/750, 750 g ai/ha",99%
same,% Control CC,common chickweed (CC),100%
same,weed control in words,weeds; Wheat and canola,alone controlled blackgrass at 750 g
same,% Control LC,[2]; [3],99%
same,% Control LC,[2]; [4],100%
